From patent publication US12643910B2, “Substituted pyrazolo[3,4-b]pyridines as ectonucleotide pyrophosphatase/phosphodiesterase 1 (ENPP1) modulators” (SANFORD BURNHAM PREBYS MEDICAL DISCOVERY INSTITUTE, priority 2019, dated 2026)

Columns and labels:
ENPP3 = molecular target: T1, ENPP3 (Homo sapiens, UniProt O14638); assay: ENPP3 Km ATP assay; format: biochemical; settings: ATP at Km
T1 sequence (O14638 1-875): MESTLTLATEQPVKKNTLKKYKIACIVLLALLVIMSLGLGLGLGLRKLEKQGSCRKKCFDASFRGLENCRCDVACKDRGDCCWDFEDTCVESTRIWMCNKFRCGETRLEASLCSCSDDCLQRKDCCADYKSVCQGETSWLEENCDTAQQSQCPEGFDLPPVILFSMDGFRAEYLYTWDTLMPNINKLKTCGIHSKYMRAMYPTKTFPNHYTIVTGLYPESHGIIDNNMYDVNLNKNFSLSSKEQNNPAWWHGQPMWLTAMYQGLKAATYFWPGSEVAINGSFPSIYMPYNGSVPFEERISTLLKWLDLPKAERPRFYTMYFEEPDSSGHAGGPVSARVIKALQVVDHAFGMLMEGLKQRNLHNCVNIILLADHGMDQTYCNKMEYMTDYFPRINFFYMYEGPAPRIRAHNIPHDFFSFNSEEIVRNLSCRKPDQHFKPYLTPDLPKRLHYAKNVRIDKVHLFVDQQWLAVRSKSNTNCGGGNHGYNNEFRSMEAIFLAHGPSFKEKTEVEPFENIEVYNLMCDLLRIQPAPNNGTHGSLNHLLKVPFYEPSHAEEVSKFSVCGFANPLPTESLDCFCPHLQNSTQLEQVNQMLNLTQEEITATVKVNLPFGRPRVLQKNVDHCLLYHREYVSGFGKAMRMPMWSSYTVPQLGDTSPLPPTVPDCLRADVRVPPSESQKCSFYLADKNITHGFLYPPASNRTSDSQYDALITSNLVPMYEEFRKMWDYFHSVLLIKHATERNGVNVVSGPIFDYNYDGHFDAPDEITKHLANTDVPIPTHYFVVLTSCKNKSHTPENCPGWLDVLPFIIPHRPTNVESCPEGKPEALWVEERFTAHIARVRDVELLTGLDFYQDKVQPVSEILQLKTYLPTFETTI

human ENPP1 = molecular target: T2, human ENPP1 (Homo sapiens, UniProt P22413); assay: ENPP1 assay with ATP substrate (Transcreener AMP2/GMP2 TR-FRET); format: biochemical; settings: 1 hour at room temperature
T2 construct: made in house
T2 sequence (P22413 1-925): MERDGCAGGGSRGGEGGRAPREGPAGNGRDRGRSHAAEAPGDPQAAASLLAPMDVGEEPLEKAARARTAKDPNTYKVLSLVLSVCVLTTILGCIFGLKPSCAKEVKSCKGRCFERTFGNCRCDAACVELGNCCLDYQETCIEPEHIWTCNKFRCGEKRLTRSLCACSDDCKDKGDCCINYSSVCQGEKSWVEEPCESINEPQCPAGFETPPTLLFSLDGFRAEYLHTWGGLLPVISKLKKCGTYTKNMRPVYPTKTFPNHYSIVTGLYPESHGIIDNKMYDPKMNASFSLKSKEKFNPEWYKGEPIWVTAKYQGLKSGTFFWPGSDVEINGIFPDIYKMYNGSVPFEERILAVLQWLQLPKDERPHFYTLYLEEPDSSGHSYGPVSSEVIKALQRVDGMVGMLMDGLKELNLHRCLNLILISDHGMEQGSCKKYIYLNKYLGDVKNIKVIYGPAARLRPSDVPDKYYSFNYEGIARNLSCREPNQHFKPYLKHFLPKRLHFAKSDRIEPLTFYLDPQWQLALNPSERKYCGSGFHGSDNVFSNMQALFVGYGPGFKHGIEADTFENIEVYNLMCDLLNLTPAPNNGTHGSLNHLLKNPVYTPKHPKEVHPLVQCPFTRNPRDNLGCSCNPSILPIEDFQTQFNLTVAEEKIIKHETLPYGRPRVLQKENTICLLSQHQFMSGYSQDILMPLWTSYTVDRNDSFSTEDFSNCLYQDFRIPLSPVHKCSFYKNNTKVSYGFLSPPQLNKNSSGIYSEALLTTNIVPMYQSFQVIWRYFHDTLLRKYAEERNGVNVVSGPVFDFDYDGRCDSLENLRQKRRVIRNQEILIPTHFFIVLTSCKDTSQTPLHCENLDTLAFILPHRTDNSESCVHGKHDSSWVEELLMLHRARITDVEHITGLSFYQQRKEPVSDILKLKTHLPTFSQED
Summary of the method: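 5′-AMP from ATP hydrolysis (300 nM ATP stock added; enzyme added as 8.5 μM stock) detected by competitive TR-FRET. Buffer: 50 mM Tris pH 7.5, 1 mM TCEP, 2 mM MgCl2, 0.005% Tween 20, 1% DMSO. Reaction 1 h at room temperature, EDTA stop. IC50 from 2-parameter variable-slope fit.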

CCCCNc1cc(NCc2ccc(S(N)(=O)=O)cc2)c2cnn(C)c2n1 [Example 2.80, 4-(((6-(Butylamino)-1-methyl-1H-pyrazolo[3,4-b]pyridin-4-yl)amino)methyl)-benzenesulfonamide]
IC50 (ENPP3): 1 to 20 µM | IC50 (human ENPP1): 1 to 20 µM

NS(=O)(=O)N1CCC(CNc2ncnc3scc(-c4ccccc4)c23)CC1 [Example 1.66, 4-(5-Phenylthieno[2,3-d]pyrimidin-4-yl)aminomethyl-1-piperidinesulfonamide]
IC50 (ENPP3): 1 to 20 µM | IC50 (human ENPP1): 0.1 to 1 µM

CN(Cc1ccccc1)c1nc(NCc2ccc(S(N)(=O)=O)cc2)c2cnn(C)c2n1 [Example 2.32, 4-(((6-(Benzyl(methyl)amino)-1-methyl-1H-pyrazolo[3,4-d]pyrimidin-4-yl)amino)methyl)-benzenesulfonamide]
IC50 (ENPP3): 0.1 to 1 µM | IC50 (human ENPP1): > 20 µM

Cn1ncc2c(NCc3ccc(S(N)(=O)=O)cc3)cc(N)nc21 [Example 2.78, 4-(((6-Amino-1-methyl-1H-pyrazolo[3,4-b]pyridin-4-yl)amino)methyl)-benzenesulfonamide]
IC50 (ENPP3): 0.1 to 1 µM | IC50 (human ENPP1): 0.1 to 1 µM

Cc1cccc(CCCNC2CCN(c3ncnc4c(C)csc34)CC2)c1 [Example 3.17, 1-(7-Methylthieno[3,2-d]pyrimidin-4-yl)-N-(3-(m-tolyl)propyl)piperidin-4-amine]
IC50 (ENPP3): 1 to 20 µM | IC50 (human ENPP1): 0.1 to 1 µM

NS(=O)(=O)c1ccc(CNc2ncnc3c2cnn3-c2ccccc2)cc1 [Example 2.38, 4-(((1-Phenyl-1H-pyrazolo[3,4-d]pyrimidin-4-yl)amino)methyl)benzenesulfonamide]
IC50 (ENPP3): 1 to 20 µM | IC50 (human ENPP1): 1 to 20 µM

Cn1ncc2c(NCc3ccc(S(N)(=O)=O)nc3)ncnc21 [Example 2.52, 5-(((1-Methyl-1H-pyrazolo[3,4-d]pyrimidin-4-yl)amino)methyl)pyridine-2-sulfonamide]
IC50 (ENPP3): 1 to 20 µM | IC50 (human ENPP1): < 0.1 µM

Cc1ccc(CNc2nc(-c3ccccn3)nc3scc(-c4ccccc4)c23)o1 [Example 1.32, N-((5-methylfuran-2-yl)methyl)-5-phenyl-2-(pyridin-2-yl)thieno[2,3-d]pyrimidin-4-amine]
IC50 (ENPP3): > 20 µM | IC50 (human ENPP1): 1 to 20 µM

Fc1cccc(CNc2nc(-c3ccccn3)nc3scc(-c4ccccc4)c23)c1 [Example 1.9, (3-Fluoro-benzyl)-(5-phenyl-2-pyridin-2-yl-thieno[2,3-d]pyrimidin-4-yl)-amine]
IC50 (ENPP3): > 20 µM | IC50 (human ENPP1): > 20 µM

CN(Cc1ccc(S(N)(=O)=O)cc1)c1ncnc2c1cnn2C [Example 2.136, 4-(N-methyl-N-(1-methyl-1H-pyrazolo[3,4-d]pyrimidin-4-yl)aminomethyl)-benzenesulfonamide]
IC50 (ENPP3): 0.1 to 1 µM | IC50 (human ENPP1): 1 to 20 µM

Cc1nsc2c(=O)n(Cc3ccc(S(N)(=O)=O)cc3)cnc12 [Example 3.60, 4-((3-Methyl-7-oxoisothiazolo[4,5-d]pyrimidin-6(7H)-yl)methyl)benzenesulfonamide]
IC50 (ENPP3): 1 to 20 µM | IC50 (human ENPP1): 1 to 20 µM

Cn1ncc2c(N3CCC(NCCCc4ccncc4)CC3)ncnc21 [Example 2.5, 1-(1-Methyl-1H-pyrazolo[3,4-d]pyrimidin-4-yl)-N-(3-(pyridin-4-yl)propyl)piperidin-4-amine]
IC50 (ENPP3): > 20 µM | IC50 (human ENPP1): > 20 µM

Cn1ncc2c(NCc3ccc(S(N)(=O)=O)cn3)cc(Cl)nc21 [Example 2.142, 6-(((6-Chloro-1-methyl-1H-pyrazolo[3,4-b]pyridin-4-yl)amino)methyl)pyridine-3-sulfonamide]
IC50 (ENPP3): 0.1 to 1 µM | IC50 (human ENPP1): < 0.1 µM

O=C(CCc1ccc(F)cc1)NC1CCN(c2ncnc3ccsc23)CC1 [Example 3.46, 3-(4-Fluorophenyl)-N-(1-(thieno[3,2-d]pyrimidin-4-yl)piperidin-4-yl)propanamide]
IC50 (ENPP3): > 20 µM | IC50 (human ENPP1): > 20 µM

Cc1nc(N2CCC(NCCCc3ccncc3)CC2)c2scc(C)c2n1 [Example 3.52, 1-(2,7-Dimethylthieno[3,2-d]pyrimidin-4-yl)-N-(3-(pyridin-4-yl)propyl)piperidin-4-amine]
IC50 (ENPP3): > 20 µM | IC50 (human ENPP1): > 20 µM

Cc1cc(CNc2ncnc3c2cnn3C)ccc1S(N)(=O)=O [Example 2.46, 2-Methyl-4-(((1-methyl-1H-pyrazolo[3,4-d]pyrimidin-4-yl)amino)methyl)-benzenesulfonamide]
IC50 (ENPP3): 1 to 20 µM | IC50 (human ENPP1): 1 to 20 µM

Cc1csc2c(N3CCC(NC(=O)CCc4ccnc(F)c4)CC3)ncnc12 [Example 3.36, 3-(2-Fluoropyridin-4-yl)-N-(1-(7-methylthieno[3,2-d]pyrimidin-4-yl)piperidin-4-yl)propanamide]
IC50 (ENPP3): > 20 µM | IC50 (human ENPP1): 1 to 20 µM

NS(=O)(=O)c1ccc(CNc2nc(-c3ccccn3)nc3scc(-c4ccccc4)c23)cc1F [Example 1.13, 2-Fluoro-4-(((5-phenyl-2-(pyridin-2-yl)thieno[2,3-d]pyrimidin-4-yl)amino)methyl)benzenesulfonamide]
IC50 (ENPP3): 0.1 to 1 µM | IC50 (human ENPP1): < 0.1 µM

Cc1csc2c(N3CCC(NCCCc4cccnc4)CC3)ncnc12 [Example 3.26, 1-(7-Methylthieno[3,2-d]pyrimidin-4-yl)-N-(3-(pyridin-3-yl)propyl)piperidin-4-amine]
IC50 (ENPP3): > 20 µM | IC50 (human ENPP1): 0.1 to 1 µM

CCCSc1nc(NCc2ccc(S(N)(=O)=O)cc2)c2cnn(C)c2n1 [Example 2.111, 4-((1-Methyl-6-(propylsulfanyl)-1H-pyrazolo[3,4-d]pyrimidin-4-yl)aminomethyl)-benzenesulfonamide]
IC50 (ENPP3): 0.1 to 1 µM | IC50 (human ENPP1): < 0.1 µM

COc1ccc(CNc2nc(-c3ccccn3)nc3scc(-c4ccccc4)c23)cc1 [Example 1.3, N-(4-Methoxybenzyl)-5-phenyl-2-(pyridin-2-yl)thieno[2,3-d]pyrimidin-4-amine]
IC50 (ENPP3): > 20 µM | IC50 (human ENPP1): > 20 µM

CN1CCN(c2nc(NCc3ccc(S(N)(=O)=O)cc3)c3cnn(C)c3n2)CC1 [Example 2.34, 4-(((1-Methyl-6-(4-methylpiperazin-1-yl)-1H-pyrazolo[3,4-d]pyrimidin-4-yl)amino)methyl)-benzenesulfonamide]
IC50 (ENPP3): 0.1 to 1 µM | IC50 (human ENPP1): > 20 µM

Cc1csc2c(N3CCC(NCCCc4ccncc4)CC3)ncnc12 [Example 3.1, 1-(7-Methylthieno[3,2-d]pyrimidin-4-yl)-N-(3-(pyridin-4-yl)propyl)piperidin-4-amine]
IC50 (ENPP3): > 20 µM | IC50 (human ENPP1): 0.1 to 1 µM

Cc1csc2c(N3CCC(NCCCc4cccc(Cl)c4)CC3)ncnc12 [Example 3.19, N-(3-(3-Chlorophenyl)propyl)-1-(7-methylthieno[3,2-d]pyrimidin-4-yl)piperidin-4-amine]
IC50 (ENPP3): > 20 µM | IC50 (human ENPP1): 0.1 to 1 µM

Cc1csc2c(N3CCC(NCCCc4ccccc4F)CC3)ncnc12 [Example 3.33, N-(3-(2-Fluorophenyl)propyl)-1-(7-methylthieno[3,2-d]pyrimidin-4-yl)piperidin-4-amine]
IC50 (ENPP3): > 20 µM | IC50 (human ENPP1): 0.1 to 1 µM

Cc1cccc(CCC(=O)NC2CCN(c3ncnc4c(C)csc34)CC2)c1 [Example 3.15, N-(1-(7-Methylthieno[3,2-d]pyrimidin-4-yl)piperidin-4-yl)-3-(m-tolyl)propanamide]
IC50 (ENPP3): > 20 µM | IC50 (human ENPP1): > 20 µM
